From ChEMBL document CHEMBL2203141, “Heterologously expressed β-hydroxyl fatty acids from a metagenomic library of a marine sponge” (2012)
Values after ≈ are worked out from the molar mass of the structure shown. Active and inactive are the calls of the source. The rule behind the calls is not given here.

Tests used:
[1] = test system: Aspergillus fumigatus; test: Antifungal activity against Aspergillus fumigatus by serial two-fold dilution microtiter plate method; assay type: functional
[2] = test system: Wickerhamomyces anomalus; test: Antifungal activity against Pichia anomala by serial two-fold dilution microtiter plate method; assay type: functional; settings: Hansenula anomala
[3] = test system: Kluyveromyces marxianus; test: Antifungal activity against Kluyveromyces marxianus by serial two-fold dilution microtiter plate method; assay type: functional
[4] = Antifungal activity against […] mucilaginosa by serial two-fold dilution microtiter plate method; assay type: functional
[5] = test system: Penicillium roqueforti; test: Antifungal activity against Penicillium roqueforti by serial two-fold dilution microtiter plate method; assay type: functional
[6] = Antifungal activity against Penicillium commune by serial two-fold dilution microtiter plate method; assay type: functional
[7] = test system: Aspergillus nidulans; test: Antifungal activity against Aspergillus nidulans by serial two-fold dilution microtiter plate method; assay type: functional
[8] = test system: Staphylococcus aureus; test: Antibacterial activity against methicillin-resistant Staphylococcus aureus by broth dilution method; assay type: functional, organism-based
[9] = test system: Bacillus cereus; test: Antibacterial activity against Bacillus cereus by broth dilution method; assay type: functional
[10] = test system: Candida albicans; test: Antifungal activity against Candida albicans by broth dilution; assay type: functional
[11] = test system: Escherichia coli; test: Antibacterial activity against Escherichia coli by broth dilution method; assay type: functional, organism-based

Row | MIC [1] [µg/mL] | MIC [2] [µg/mL] | MIC [3] [µg/mL] | MIC [4] [µg/mL] | MIC [5] [µg/mL] | MIC [6] [µg/mL] | MIC [7] [µg/mL] | Compound | Activity [8] | MIC [9] [µg/mL] | MIC [10] [µg/mL] | Activity [11]
1 | 10 (≈ 40.9 µM) | 10 (≈ 40.9 µM) | 10 (≈ 40.9 µM) | 10 (≈ 40.9 µM) | 10 (≈ 40.9 µM) | 10 (≈ 40.9 µM) | 10 (≈ 40.9 µM) | CCCCCCCCCCC[C@@H](O)CC(=O)O | – | – | – | –
2 | 10 (≈ 46.2 µM) | 10 (≈ 46.2 µM) | 10 (≈ 46.2 µM) | 10 (≈ 46.2 µM) | 10 (≈ 46.2 µM) | 10 (≈ 46.2 µM) | 10 (≈ 46.2 µM) | CCCCCCCCC[C@@H](O)CC(=O)O | – | – | – | –
3 | – | – | – | – | – | – | – | CCCCCCCCCCCCC[C@@H](O)CC(=O)O | inactive | 6.25 (≈ 22.9 µM) | 12.5 (≈ 45.9 µM) | inactive
